# Data taken from patent publication US11767313B2, “Compounds as nuclear transport modulators and uses thereof” (XWPHARMA LTD., priority 2018, dated 2023).
# Where two headings read alike, the source gives them in different places.
# Legend:
# [1] = Ratio of brain to plasma; format: in vivo; conditions: rats, 10 mg/kg PO
# Procedure: (§1) Following collection, brain tissue was rinsed with cold saline, dried on filter paper, weighed and snap-frozen by placing on dry ice. All samples were stored frozen at approximately −80° C. until analysis. At the time of analysis, brain tissue was homogenized (homogenizing solution PBS, pH 7.4), mixed with internal standard in acetonitrile, vortexed, centrifuged, and supernatant was injected for analysis. Concentration of compounds in plasma was determined using LC-MS-MS instrumentation (API 4000, Triple Quadrupole LC/MS/MS Mass Spectrometer). Plasma samples were treated with the identical method (except homogenization step) and the concentration of compound in each matrix was calculated based on generated standard curves.
# [2] = system: U251; test: CellTiter-Glo cell proliferation assay, U251; format: cell-based; conditions: Homo sapiens, U-251
# Procedure: (§2) CellTiter-Glo® Luminescent Cell Viability assay (with Promega CellTiter 96® Luminescent CellTiter-Glo® kit) was used to study the proliferation inhibition by test compounds. Compounds were resuspended in DMSO to make a 25 mM stock suspension. Cells of cancer cell lines or normal tissues were seeded in 96-well plates at 1,500 to 5,000 cells/well overnight. Compounds were 2- or 3-fold diluted serially to obtain 10 concentrations. Then, the drugs were added to the cell wells by Bravo (Agilent) and incubated for 72 hours. The cells were lysed by adding CellTiter-Glo® Reagent (per manufacturer's instructions) and subsequently, the luminescence was read using EnVision® (PerkinElmer).
# (§3) The percent of growth was calculated as follows. DMSO-treated cells were employed as vehicle control (High control, HC) and culture medium alone was employed as background (Low control, EC). % growth=100×(Lum sample−Lum EC)/(Lum HC−Lum EC). The ICso was calculated by concentration-response curve fitting using Graphpad Prism.
# (§4) Hematological cancer cell lines tested included OCI-AML3, MV-4-11, KG-1, Kasumi-1, K562, THP-1; solid cancer cell lines tested included U87MG, U251, T98G, LN229, A172, H460, H2009, A549; normal cell lines tested included HCN2 and 3T3-L1. […] However, they were not toxic to in vitro cultured normal cells.
# [3] = Pharmacokinetic profile in plasma; format: in vivo; conditions: P.O., mice
# Procedure: (§5) Blood was collected from mice (n=3, or 5) to contribute to the total of 10 time points (pre-dose, 5 min, 15 min, 30 min, 1 hour, 2 hours, 4 hours, 8 hours, 12 hours and 24 hours). At the designated time points, animals were anaesthetized under isoflurane, and approximately 110 μL of blood per time point was collected via retro-orbital puncture into pre-cooled K2EDTA tubes. Blood samples were put on wet ice and centrifuged (2000 g, 5 min at 4° C.) to obtain plasma within 30 minutes of sample collection. All samples were stored frozen at approximately −80° C. until analysis. Prior to analysis, samples were mixed with internal standard in acetonitrile, vortexed, centrifuged, and supernatant was injected for analysis. Concentration of compounds in plasma was determined using LC-MS-MS instrumentation (API 4000, Triple Quadrupole LC/MS/MS Mass Spectrometer). AUC values were calculated using Phoenix Win Nonlin 6.3 software package, PO-Noncompartmental model 200 (extravascular input).
# [4] = system: LN-229; test: CellTiter-Glo cell proliferation assay, LN-229; format: cell-based; conditions: Homo sapiens, LN-229
# Procedure: as §2, §3, §4
# [5] = system: T98G; test: CellTiter-Glo cell proliferation assay, T98G; format: cell-based; conditions: Homo sapiens, T98G
# Procedure: as §2, §3, §4
# [6] = system: HCN2; test: CellTiter-Glo cell proliferation assay, HCN2 (normal brain); format: cell-based
# Procedure: as §2, §3, §4
# [7] = system: U87MG; test: CellTiter-Glo cell proliferation assay, U87MG; format: cell-based, human; conditions: Homo sapiens, U-87 MG
# Procedure: as §2, §3, §4
# [8] = target: XPO1 (Homo sapiens, UniProt O14980); test: REV-GFP translocation assay in U2OS cells; format: cell-based; design: endogenous in cells; host or cells: U2OS cells stably expressing REV-GFP (clones from HD Biosciences); conditions: for IC50: Table 10
# Chain of XPO1 (O14980 whole entry): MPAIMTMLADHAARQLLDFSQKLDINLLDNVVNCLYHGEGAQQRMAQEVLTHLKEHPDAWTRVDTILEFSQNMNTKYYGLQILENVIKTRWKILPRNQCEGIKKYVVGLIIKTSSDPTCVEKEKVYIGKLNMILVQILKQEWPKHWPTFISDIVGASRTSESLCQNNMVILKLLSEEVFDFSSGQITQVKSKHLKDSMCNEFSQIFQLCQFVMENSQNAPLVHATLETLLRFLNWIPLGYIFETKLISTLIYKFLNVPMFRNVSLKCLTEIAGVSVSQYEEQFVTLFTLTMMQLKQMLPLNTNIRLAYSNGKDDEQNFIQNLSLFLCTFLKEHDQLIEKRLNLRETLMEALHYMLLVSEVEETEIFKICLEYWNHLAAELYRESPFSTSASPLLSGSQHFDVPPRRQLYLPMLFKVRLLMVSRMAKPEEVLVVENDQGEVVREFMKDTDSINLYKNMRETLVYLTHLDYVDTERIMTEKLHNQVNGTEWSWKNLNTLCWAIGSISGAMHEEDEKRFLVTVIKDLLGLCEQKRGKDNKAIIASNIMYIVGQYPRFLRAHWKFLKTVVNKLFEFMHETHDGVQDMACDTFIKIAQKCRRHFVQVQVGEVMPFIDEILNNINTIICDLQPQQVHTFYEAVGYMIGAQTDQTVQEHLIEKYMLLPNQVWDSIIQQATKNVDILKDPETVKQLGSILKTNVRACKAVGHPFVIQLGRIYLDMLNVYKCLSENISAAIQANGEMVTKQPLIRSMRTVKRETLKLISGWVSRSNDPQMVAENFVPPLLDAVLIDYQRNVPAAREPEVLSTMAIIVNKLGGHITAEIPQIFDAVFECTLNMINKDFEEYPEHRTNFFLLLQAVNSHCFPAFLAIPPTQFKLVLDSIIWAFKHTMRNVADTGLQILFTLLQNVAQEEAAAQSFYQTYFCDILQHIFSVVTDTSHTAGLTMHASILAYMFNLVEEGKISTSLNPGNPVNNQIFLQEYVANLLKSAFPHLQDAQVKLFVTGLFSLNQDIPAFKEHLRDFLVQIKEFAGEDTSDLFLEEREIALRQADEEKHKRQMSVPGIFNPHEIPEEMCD
# Procedure: LTD in China, and cells were cultured with growth medium. […] The highest Leptomycin B (LMB) concentration was set to 50 nM and serially diluted as the positive control, while the highest concentrations of other compounds were set to 10 μM. The cells treated with various drugs or DMSO, were incubated at 37° C. and 5% CO2 for 1 h. Then, cells were fixed with 4% formaldehyde for 15 min at room temperature. The cells were washed and stained with 100 μL Hoechst 33342 working solution for 10 min at room temperature in dark, after which the cell fluorescence was imaged with the High-Content Imaging System, ImageXpress® (Molecular Devices) using the 20× objective. The filters were set for Hoechst (350/461 nm) and GFP/FITC (488/509 nm) (wavelength for excitation and emission maxima). The % effect of REV nuclear translocation was calculated with the following formula: % effect=([…]- signals from testing compounds; ILMB-signals of 50 nM LMB group; ICTRL-signals of vehicle control group.
# [9] = Pharmacokinetic profile in plasma; format: in vivo; conditions: mouse, iv, I. V., mice
# [10] = Pharmacokinetic profile summary; format: in vivo, mice or rats
# Procedure: as §5, §1
# The pharmacokinetic profile of test compounds in mice or rats was determined from several test compounds was determined using the methods described in Example 22.
# [11] = 72 hours, Table 1, read-out: Growth inhibition (IC50)
smiles,measurement,setting,value
"O=C(/C=C\n1cnc(-c2cc(C(F)(F)F)cc(S(F)(F)(F)(F)F)c2)n1)NNc1ccccn1 [Compound II, (Z)-3-(3-(3-(Pentafluorosulfanyl)-5-(trifluoromethyl)phenyl)-1H-1,2,4-triazol-1-yl)-N′-(pyridin-2-yl)acrylohydrazide]",Kp at 0.25 h,"[1]; rat, brain/plasma, 0.25 h",0.716
same,Kp at 1 h,"[1]; rat, brain/plasma, 1 h",0.954
same,Kp at 8 h,"[1]; rat, brain/plasma, 8 h",1.4
same,brain concentration (second number of pair),[1]; 0.25 h,301 ng/g
same,plasma concentration (first number of pair),[1]; 0.25 h,419 ng/g
same,brain concentration (second number of pair),[1]; 1 h,1191 ng/g
same,plasma concentration (first number of pair),[1]; 1 h,1274 ng/g
same,brain concentration (second number of pair),[1]; 8 h,937 ng/g
same,plasma concentration (first number of pair),[1]; 8 h,677 ng/g
same,IC50,"[2]; Table 11, read-out: Absolute IC50 (μM) U251",2.3 µM
same,IC50,"[2]; U251, 72 hours, Table 1, read-out: Growth inhibition (IC50)",2.34 µM
same,AUG0-inf,[3],13905 ng·h/mL
same,Cmax,"[3]; mouse, po",1600 ng/mL
same,Tmax,"[3]; mouse, po",2 h
same,half-life,"[3]; mouse, po",283 min
same,MRT inf,"[3]; mouse, po, read-out: MRT0-inf",7.84 h
same,MRT last,"[3]; mouse, po, read-out: MRT0-last",6.9 h
same,IC50,"[4]; Table 11, read-out: Absolute IC50 (μM) LN-229",0.8 µM
same,IC50,[4]; [11],0.805 µM
same,IC50,"[5]; Table 11, read-out: Absolute IC50 (μM) T98G",1.9 µM
same,IC50,[5]; [11],1.92 µM
same,IC50,"[6]; 72 h, HCN2 normal cell line, 72 hours, Table 1, read-out: Growth inhibition (IC50)",44.7 µM
same,IC50,"[6]; Table 9, read-out: HCN2 IC50",44.7 µM
same,IC50,"[7]; 72 h, U87MG, 72 hours, Table 1, read-out: Growth inhibition (IC50)",630 nM
same,IC50,"[7]; Table 9, first value column, read-out: U87MG IC50",537 nM
same,IC50,"[7]; Table 9, second value column, read-out: U87MG IC50",723 nM
same,EC50,"[8]; REV-EGFP U2OS cells, 1 h, Table 2, read-out: Rev-GFP/EC50",0.0285 µM
same,IC50,[8]; first (or only) value of the cell,35.2 nM
same,IC50,[8]; second value of the cell,21.8 nM
same,EC50,"[8]; Table 13, read-out: Rev-GFP assay/μM",0.035 µM
same,AUC(0-t),[9],1620 ng·h/mL
same,C0,[9],558 ng/mL
same,clearance,[9],10 mL/min/kg
same,half-life,[9],229 min
same,MRT last,[9]; read-out: MRT0-last,4.76 h
same,Vd,[9]; read-out: Vdss,3.2 L/kg
same,Kp,"[10]; mouse, brain/plasma, 5 mpk/mice/AUC Ratio, read-out: B/P ratio",1.58
same,Cmax,"[10]; mouse, po, 5 mg/kg, 5 mpk/mice, first number of Plasma/brain pair, read-out: Cmax/(ng/mL) Plasma",1040 ng/mL
same,Cmax,"[10]; mouse, po, 5 mg/kg, 5 mpk/mice, second number of Plasma/brain pair, read-out: Cmax/(ng/mL) brain",1770 ng/mL
same,AUC,"[10]; plasma, po, 10 mg/kg, 10 mpk",4150 ng·h/mL
same,half-life,"[10]; plasma, mice or rats",414 min
same,Cmax,"[10]; po, 10 mg/kg, plasma, 10 mpk, read-out: Cmax (ng/ml) plasma/10 mpk",796 ng/mL
